# From the supplement of paper PMC13380429
# Assays:
# Conditions in all cases: 72 h
# [1] = test system: Caco-2; test: cell viability relative to DMSO; higher = less toxic
# [2] = test system: Calu-3; test: as above
# [3] = test system: HepG2; test: as above
# [4] = test system: U2OS; test: as above
# [5] = test system: Caco-2; test: relative viability EC50 (midpoint between 100% and the lowest measured viability); higher = less toxic
# [6] = test system: Calu-3; test: as above
# [7] = test system: HepG2; test: as above
# [8] = test system: U2OS; test: as above
# [9] = test system: Caco-2; test: drug sensitivity score (DSS) for viability; higher = more toxic; extreme values may be limits of the assay
# [10] = test system: Calu-3; test: as above
# [11] = test system: HepG2; test: as above
# [12] = test system: U2OS; test: as above
# [13] = test system: Vero E6; test: cell viability relative to DMSO; higher = less toxic
# [14] = test system: Vero E6; test: relative viability EC50 (midpoint between 100% and the lowest measured viability); higher = less toxic
# [15] = test system: Vero E6; test: drug sensitivity score (DSS) for viability; higher = more toxic; extreme values may be limits of the assay
Structure (SMILES),cell viability ([1]; 1 nM),cell viability ([1]; 10 nM),cell viability ([1]; 100 nM),cell viability ([1]; 1000 nM),cell viability ([1]; 10000 nM),cell viability ([2]; 1 nM),cell viability ([2]; 10 nM),cell viability ([2]; 100 nM),cell viability ([2]; 1000 nM),cell viability ([2]; 10000 nM),cell viability ([3]; 1 nM),cell viability ([3]; 10 nM),cell viability ([3]; 100 nM),cell viability ([3]; 1000 nM),cell viability ([3]; 10000 nM),cell viability ([4]; 1 nM),cell viability ([4]; 10 nM),cell viability ([4]; 100 nM),cell viability ([4]; 1000 nM),cell viability ([4]; 10000 nM),relative viability EC50 [5],relative viability EC50 [6],relative viability EC50 [7],relative viability EC50 [8],drug sensitivity score [9],drug sensitivity score [10],drug sensitivity score [11],drug sensitivity score [12],cell viability ([13]; 1 nM),cell viability ([13]; 10 nM),cell viability ([13]; 100 nM),cell viability ([13]; 1000 nM),cell viability ([13]; 10000 nM),relative viability EC50 [14],drug sensitivity score [15]
CC(N)C12CC3CC(CC(C3)C1)C2 (stereo unspecified) [rimantadine],101%,94.6%,101%,103%,103%,91%,84.1%,82.5%,96.6%,95.6%,93.6%,108%,100%,101%,103%,95.3%,98%,101%,102%,104%,> 10 µM,> 10 µM,> 10 µM,> 10 µM,0,0,0,0,,,,,,,
CC1(C)CCC(C)(C)c2cc(C(=O)Nc3ccc(C(=O)O)cc3)ccc21 [AM-580],95.5%,99.1%,98.1%,95.6%,93.9%,89.5%,83.4%,71.6%,77.3%,81.6%,92.6%,101%,101%,102%,97.3%,100%,96.7%,95.6%,90.5%,95.6%,> 10 µM,,> 10 µM,> 10 µM,0,7.7,0,0,103%,106%,102%,101%,96.5%,> 10 µM,0
COc1ccc(C(=O)c2ccccc2O)c(O)c1 [dioxybenzone],101%,91%,106%,98.7%,101%,106%,93.3%,97.7%,91.1%,106%,102%,92%,96.9%,96%,99.3%,103%,99%,100%,105%,102%,> 10 µM,> 10 µM,> 10 µM,> 10 µM,0,0,0,0,110%,73.6%,92.4%,99.4%,67.2%,,1.6
O=C(O)C(Cl)Cl [dichloroacetate],102%,106%,116%,97.3%,98.6%,,,,,,111%,104%,110%,93.2%,102%,104%,96.2%,97.4%,96%,99.6%,> 10 µM,,> 10 µM,> 10 µM,0,,0,0,104%,96.3%,96.1%,104%,96%,> 10 µM,0
CCOCc1cc(OC)c(-c2ccc(C[C@H](NC(=O)c3c(F)cccc3F)C(=O)O)cc2)c(OC)c1 [firategrast],99.3%,94.6%,104%,93.9%,101%,103%,94.1%,86.4%,99.7%,98.5%,104%,105%,90.3%,99.3%,96.6%,,,,,,> 10 µM,> 10 µM,> 10 µM,,0,0,0,,96.3%,101%,98.5%,101%,98%,> 10 µM,0
CC(=O)c1cc2c(o1)C(=O)c1ccccc1C2=O [napabucasin],103%,98.5%,95.3%,55.8%,0.5%,124%,109%,101%,106%,56.4%,102%,109%,97.1%,-0.9%,-0.3%,102%,98.5%,102%,98.9%,-0.4%,1.13 µM,,0.291 µM,3.07 µM,10.7,1.8,18.4,5.8,88.7%,99.5%,89.6%,88.8%,-0.4%,2.24 µM,7.4
Cc1ccc(C(=O)c2ccc(CC(=O)O)n2C)cc1 [tolmetin],90.4%,94.6%,94.6%,90.7%,105%,88.7%,97.8%,92.4%,90.9%,96.6%,109%,109%,100%,108%,93.7%,96.8%,102%,92.4%,97.8%,102%,> 10 µM,> 10 µM,> 10 µM,> 10 µM,0,0,0,0,,,,,,,
O=S(=O)(N[C@H]1CC[C@@](c2cc(F)ccc2F)(S(=O)(=O)c2ccc(Cl)cc2)CC1)C(F)(F)F [MRK-560],88.8%,99.1%,94.5%,94.7%,95.6%,96.2%,91.2%,104%,97.7%,102%,98.5%,91.2%,106%,81.5%,86.4%,99.9%,102%,100%,101%,95.9%,> 10 µM,> 10 µM,> 10 µM,> 10 µM,0,0,2.1,0,,,,,,,
CCCC[C@@H](NC(=O)[C@@H](Cc1cn(C(=O)OC)c2ccccc12)NC(=O)[C@H](CC(C)(C)C)NC(=O)N1[C@H](C)CCC[C@@H]1C)C(=O)O [BQ-788],102%,104%,96.1%,106%,104%,98.9%,98.3%,112%,106%,97.2%,89.9%,88.1%,104%,107%,101%,97.1%,90.1%,95.8%,105%,99.8%,> 10 µM,> 10 µM,> 10 µM,> 10 µM,0,0,0,0,,,,,,,
COc1cc(Nc2c(C#N)cnc3cc(OCCCN4CCN(C)CC4)c(OC)cc23)c(Cl)cc1Cl [bosutinib],95.2%,99.1%,107%,87.1%,42.6%,,,,,,105%,101%,101%,81.6%,15.9%,95.4%,101%,102%,97.1%,22.7%,1.64 µM,,1.66 µM,2.88 µM,5.2,,7.6,4.7,98.7%,100%,99.9%,72.5%,15.2%,1.34 µM,8.6
CCCCCCCCCCC(C)(C)C(=O)Nc1c(OC)cc(OC)cc1OC [CI-976],98.7%,97.9%,91.7%,99.5%,90.2%,101%,97.6%,95.5%,112%,99.3%,105%,103%,103%,102%,96.5%,100%,101%,98.9%,103%,97.9%,> 10 µM,> 10 µM,> 10 µM,> 10 µM,0,0,0,0,,,,,,,
O=S1(=O)N[C@H]2CCCN2c2ccccc21,100%,96.7%,88.4%,104%,113%,93.3%,106%,108%,104%,101%,96.8%,99.3%,89.7%,104%,86.7%,,,,,,> 10 µM,> 10 µM,> 10 µM,,0,0,0.1,,101%,100%,98%,89.5%,96.7%,> 10 µM,0
CS(=O)(=O)Nc1ccc(-c2coc3cc(OCc4cccc(C(=O)O)c4)ccc3c2=O)cc1,94.9%,97.6%,97.7%,97.1%,101%,108%,90.4%,96.2%,101%,103%,92.6%,107%,101%,109%,93.2%,97.8%,99.1%,107%,105%,103%,> 10 µM,> 10 µM,> 10 µM,> 10 µM,0,0,0,0,,,,,,,
CO[C@@H]1COCC[C@@H]1N[C@@H]1CC[C@@](C(=O)N2CCc3ncc(C(F)(F)F)cc3C2)(C(C)C)C1 [MK-0812],110%,95.7%,99%,113%,97.5%,,,,,,96.5%,82.9%,90.3%,94.7%,98.4%,98.8%,106%,101%,106%,103%,> 10 µM,,> 10 µM,> 10 µM,0,,0,0,102%,100%,111%,106%,97.2%,> 10 µM,0
Cc1nc(-c2ccc(OCC(C)C)c(C#N)c2)sc1C(=O)O [febuxostat],93.5%,94%,104%,98.6%,96.1%,,,,,,112%,96.8%,107%,96.8%,94.1%,92.8%,99.9%,97.2%,102%,106%,> 10 µM,,> 10 µM,> 10 µM,0,,0,0,94.3%,98.5%,100%,101%,96.4%,> 10 µM,0
O=C(O)C1=CCNCC1 [isoguvacine],106%,99.5%,108%,106%,98.7%,105%,99.1%,104%,94.5%,94.4%,91%,98.5%,91.9%,96.1%,95%,,,,,,> 10 µM,> 10 µM,> 10 µM,,0,0,0,,101%,103%,100%,99.4%,98.2%,> 10 µM,0
